The text below walks through data of ChEMBL document CHEMBL4428085, “Benzimidazole analogs as WTA biosynthesis inhibitors targeting methicillin resistant Staphylococcus aureus” (Bioorg Med Chem Lett, 2016).

Data set [1] can be described thus: Inhibition of Staphylococcus aureus TarO assessed as reversal of targocil-mediated bacterial growth inhibition.
Data set [2] deals with Staphylococcus epidermidis. Description: Inhibition of methicillin-resistant Staphylococcus epidermidis TarO assessed as potentiation of action of imipenem-mediated bacterial growth inhibition by measuring percentage of compound MITC95<=25 uM for 25 isolates. Also on record: scale not given: the % may be the effect or the level left.
Data set [3] can be described thus: Inhibition of Staphylococcus aureus TarO assessed as suppression of bacteriophageK-mediated cell lysis.
Data set [4] relates to Staphylococcus aureus. Description: Inhibition of methicillin-resistant Staphylococcus aureus TarO assessed as potentiation of action of imipenem-mediated bacterial growth inhibition by measuring percentage of compound MITC95<=25 uM for 25 isolates. Also on record: scale not given: the % may be the effect or the level left.
The test system of data set [5] is Staphylococcus aureus subsp. aureus COL. The data set is described as follows: Inhibition of methicillin-resistant Staphylococcus aureus COL TarO assessed as concentration of compound for potentiation of action of imipenem-mediated bacterial growth inhibition by 95 %.
A short description of data set [6]: Inhibition of Staphylococcus aureus TarO.
Data set [7] relates to Staphylococcus aureus. Description: Antibacterial activity against methicillin-resistant Staphylococcus aureus COL. Format: functional.
The nature of data set [8]: AUC (0 to 24 hrs) in rat at 2 mg/kg, po. Also on record: dose 2 mg/kg, time < 24 hr, route oral. The format is ADME, organism-based. The note with it: in vivo.
A short description of data set [9]: Oral bioavailability in rat at 2 mg/kg. Format: ADME, organism-based. The note with it: in vivo.
Data set [10] can be described thus: Half life in rat at 2 mg/kg, po. Format: ADME, organism-based. Conditions: in vivo.

As usually defined, the EC50 is the concentration that produces a half-maximal response. One may read the IC50 as the point on the concentration scale where inhibition reaches its midpoint. On to `CCN(C(=O)CCn1c2cc(-c3ccccc3)ccc2nc1[C@H]1CC[C@H](CC)CC1)C1CCCCC1`, for which the figures for the EC50 in data set [1] and in data set [3] were 0.03 µM and 0.2 µM, respectively. Moreover, the Activity is 12% in data set [2] and 72% in [4]. Moreover, the MITC95 in data set [5] came to 0.2 µM. Also, it took 0.004 µM to reach half-maximal inhibition in [6] (IC50).
Consider `CCN(C(=O)CCn1c2c(F)cccc2nc1[C@H]1CC[C@H](CC)CC1)C1CCCCC1`, for which the EC50 in [1] is 0.4 µM; in data set [3] it was 0.9 µM. In addition, the Activity in [2] turned out to be 75%; in data set [4], 68%. The MITC95 in [5] amounted to 0.8 µM. In data set [6], this compound gave an IC50 of 0.04 µM.
Consider `CCN(C(=O)CCn1c2cc(CN(C)C)ccc2nc1[C@H]1CC[C@H](CC)CC1)C1CCCCC1`, for which the EC50 in data set [1] and in [3] was > 200 µM throughout. The MITC95 in data set [5] was 25 µM. The compound also had an IC50 in data set [6] of 200 µM.
Regarding `CCN(C(=O)CCn1c2cc(-c3cnn(C)c3)ccc2nc1[C@H]1CC[C@H](CC)CC1)C1CCCCC1`, the values for the EC50 in data set [1] and in data set [3] were 0.6 µM and 0.7 µM, respectively. Besides, the Activity in [2] was found to be 67%; in [4], 80%. Moreover, in data set [5], the MITC95 was 0.2 µM. The compound also showed an IC50 in data set [6] of 0.05 µM.
For the compound `CCN(C(=O)CCn1c2cc(-c3cn[nH]c3)ccc2nc1[C@H]1CC[C@H](CC)CC1)C1CCCCC1`, the EC50 in [1] was determined as 24 µM; in [3] it was 100 µM. In addition, the MITC95 in data set [5] worked out at 6.3 µM. Besides, inhibition in [6] was half-maximal at 200 µM (IC50).
On to `CCN(C(=O)CCn1c(C2CCCN(C(C)=O)C2)nc2cc(F)ccc21)C1CCCCC1` (stereo not given), for which the EC50 in data set [1] and in [3] was > 200 µM throughout. Besides, in [5], the MITC95 was 100 µM. Half-maximal inhibition in data set [6] (IC50) required 48 µM.
`CCN(C(=O)CCn1c2cc(F)ccc2nc1[C@H]1CC[C@H](CC)CC1)C1CCCCC1`: the results for the EC50 in data set [1] and in data set [3] were 0.7 µM and 0.8 µM, respectively. Also, the results for the Activity in data set [2] and in data set [4] were 42% and 68%, respectively. In addition, in data set [5], the MITC95 worked out at 0.1 µM. The same compound returned an IC50 in [6] of 0.02 µM.
`CCN(C(=O)CCn1c2cccc(F)c2nc1[C@H]1CC[C@H](CC)CC1)C1CCCCC1`: the EC50 in data set [1] was 0.4 µM; in data set [3], 0.8 µM. In addition, the Activity in [2] stood at 58%; in data set [4] it was 68%. In addition, in data set [5], the MITC95 stood at 0.1 µM. Further, in [6], half-maximal inhibition (IC50) required 0.03 µM.
In the case of `CCN(C(=O)CCn1c2cc(CO)ccc2nc1[C@H]1CC[C@H](CC)CC1)C1CCCCC1`, the EC50 in data set [1] came to 7.1 µM; in data set [3], 5.4 µM. Also, the Activity in data set [4] worked out at 68%. In addition, the MITC95 in [5] is 0.5 µM. In [6], the IC50 turned out to be 0.1 µM.
Regarding `CCOC(=O)N1CCCC(c2nc3cc(F)ccc3n2CCC(=O)N(CC)C2CCCCC2)C1` (stereo not given), the EC50 in data set [1] and in data set [3] was 3.3 µM in each case. In addition, the Activity in data set [4] worked out at 68%. Further, the MITC95 in data set [5] stood at 0.4 µM. This compound registered an IC50 in data set [6] of 0.1 µM.
Turning to `CCN(C(=O)CCn1c(-c2ccc(C(=O)OC)cc2)nc2ccccc21)C1CCCCC1`, the concentration giving a half-maximal response (EC50) turned out to be 4.3 µM in data set [1] and 6.9 µM in [3]. The Activity in data set [4] was determined as 64%. Besides, the MITC95 in [5] came to 1.2 µM. The compound also came in with an IC50 in data set [6] of 0.1 µM.
Regarding `CCN(C(=O)CCn1c2ccc(Br)cc2nc1[C@H]1CC[C@H](CC)CC1)C1CCCCC1`, in data set [7], the Activity was >200 µM. Also, in data set [6], the IC50 is < 0.4 µM.
On to `CCN(C(=O)CCn1c(-c2ccc(OCC(F)(F)F)cc2)nc2ccccc21)C1CCCCC1`, for which the EC50 stood at 1.1 µM in [1] and 1.2 µM in [3]. Moreover, the values for the Activity in [2] and in data set [4] were 4% and 68%, respectively. For the same compound, the MITC95 in data set [5] was determined as 0.3 µM. Also, the midpoint of inhibition in data set [6], the IC50, lay at 0.04 µM.
With `CCN(C(=O)CCn1c(-c2ccc(-n3ccnn3)cc2)nc2ccccc21)C1CCCCC1`, the EC50 in data set [1] and in data set [3] was > 200 µM each time. Further, in data set [5], the MITC95 was determined as 19 µM. In [6], this compound yielded an IC50 of 3.8 µM.
For `CCN(C(=O)CCn1c2cc(C(=O)NC3CC3)ccc2nc1[C@H]1CC[C@H](CC)CC1)C1CCCCC1`, the EC50 was 90 µM in data set [1] and 108 µM in data set [3]. In data set [5], the MITC95 came out at 50 µM. This compound yielded an IC50 in data set [6] of 200 µM.
Regarding `CCN(C(=O)CCn1c(C2CCCNC2)nc2cc(F)ccc21)C1CCCCC1` (stereo not given), the EC50 in data set [1] and in data set [3] was > 200 µM each time. In addition, the MITC95 in data set [5] turned out to be 200 µM. In addition, the IC50 in [6] came out at 16.5 µM.
A word on the AUC: it is concentration integrated over time. One may read the bioavailability as dose-corrected exposure relative to a reference, in per cent. Broadly, the half-life is the time needed for the level to fall by half in the phase considered. Compound `CCN(C(=O)CCn1c2ccc(F)cc2nc1[C@H]1CC[C@H](CC)CC1)C1CCCCC1` came in with an AUC in data set [8] of 900 nM·h. Moreover, the Activity in [7] was > 200 µM; in [2] it was 54%; in data set [4], 76%. Further, in data set [9], the bioavailability worked out at 15%. Further, the EC50 turned out to be 0.03 µM in [1] and 0.04 µM in data set [3]. The same compound had a half-life in [10] of 5 h. Besides, the MITC95 in data set [5] is 0.004 µM. In [6], the IC50 was found to be 0.04 µM.
On to `CCN(C(=O)CCn1c2cc(C(=O)O)ccc2nc1[C@H]1CC[C@H](CC)CC1)C1CCCCC1`, for which the EC50 in data set [1] and in [3] was > 200 µM each time. For the same compound, in data set [5], the MITC95 was 200 µM. For the same compound, half-maximal inhibition in data set [6] (IC50) was put at 147 µM.
Take `CCN(C(=O)CCn1c2cc(-c3ccc(O)cc3)ccc2nc1[C@H]1CC[C@H](CC)CC1)C1CCCCC1`: the EC50 came to 1.8 µM in data set [1] and 29 µM in [3]. Besides, the Activity in [4] came out at 56%. Besides, the MITC95 in data set [5] is 0.3 µM. Besides, the IC50 in [6] was determined as 0.1 µM.
As to `CCN(C(=O)CCn1c2cc(-c3ccc(CO)cc3)ccc2nc1[C@H]1CC[C@H](CC)CC1)C1CCCCC1`, the EC50 in data set [1] and in data set [3] was > 200 µM in each case. The MITC95 in data set [5] stood at 4.7 µM. The compound further displayed an IC50 in data set [6] of 0.3 µM.
For `CCNC(=O)N1CCCC(c2nc3cc(F)ccc3n2CCC(=O)N(CC)C2CCCCC2)C1` (stereo not given), the EC50 in data set [1] and in [3] was > 200 µM each time. Moreover, in data set [5], the MITC95 came out at 100 µM. Besides, in [6], inhibition was half-maximal at 28 µM (IC50).
On to `CCN(C(=O)CCn1c(C2CCCN(C(=O)OC(C)(C)C)C2)nc2cc(F)ccc21)C1CCCCC1` (stereo not given), for which the EC50 in [1] turned out to be 1.5 µM; in data set [3], 1.7 µM. Also, the Activity worked out at 4% in data set [2] and 64% in data set [4]. Further, in [5], the MITC95 is 0.5 µM. The IC50 in [6] was 0.06 µM.
Consider `CC1(C)[C@@H]2CC[C@@]1(C)[C@@H](NC(=O)CCn1c(C3CCCCC3)nc3ccccc31)C2`, for which the Activity in data set [7] is >200 µM. Further, the values for the EC50 in data set [1] and in data set [3] were 6 µM and 3 µM, respectively. Besides, the MITC95 in [5] is 3 µM. This compound also displayed an IC50 in data set [6] of 0.4 µM.
